Experimental data reported in USRE39497E1, “Storage of materials” (Nektar Therapeutics, priority 1989, dated 2007).

Assays:
[1] = L. Slade and H. Levine, Pure Appl. Chem. 60 1841 (1988); cited from earlier work
[2] = Glass transition temperature Tg (differential scanning calorimeter); format: physicochemical; settings: determined by the applicant
Description: Tg values can be determined with a differential scanning calorimeter and can be detected as a point at which a plot of heat input against temperature passes through an inflection point—giving a maximum of the first temperature derivative.

Tg value [2] | Molecule | Tg [1]
– | OC[C@H]1O[C@H](O[C@H]2[C@H](O)[C@@H](O)C(O)O[C@@H]2CO)[C@H](O)[C@@H](O)[C@@H]1O (mixture of isomers) [maltose] | 43 °C
55 °C | OC[C@H]1O[C@@](CO)(O[C@H]2O[C@H](CO)[C@@H](O)[C@H](O)[C@H]2O)[C@@H](O)[C@@H]1O [sucrose] | –
– | maltotriose | 76 °C
